“Also recorded” adds a separate entry of the source.
Experiments:
[1] = biological target: purified and modified human CYP17A1 (Homo sapiens, UniProt P05093); experiment: Spectral assay for ligand binding; details: for type of difference spectrum induced: UV-visible difference spectroscopy; for Kd: read-out: Ks (spectral binding constant), 200 nM CYP17A1, 0.1 M potassium phosphate pH 7.4, 20% glycerol, room temperature, means ± SE of 2-4 experiments
[2] = biological target: T1, native human CYP17A1 enzyme in yeast microsomes (Homo sapiens, UniProt P05093); experiment: CYP17A1 hydroxylase activity assay; format: biochemical; details: for mode of inhibition: Lineweaver-Burk and Cornish-Bowden plots, progesterone hydroxylation
T1 sequence (P05093 1-508): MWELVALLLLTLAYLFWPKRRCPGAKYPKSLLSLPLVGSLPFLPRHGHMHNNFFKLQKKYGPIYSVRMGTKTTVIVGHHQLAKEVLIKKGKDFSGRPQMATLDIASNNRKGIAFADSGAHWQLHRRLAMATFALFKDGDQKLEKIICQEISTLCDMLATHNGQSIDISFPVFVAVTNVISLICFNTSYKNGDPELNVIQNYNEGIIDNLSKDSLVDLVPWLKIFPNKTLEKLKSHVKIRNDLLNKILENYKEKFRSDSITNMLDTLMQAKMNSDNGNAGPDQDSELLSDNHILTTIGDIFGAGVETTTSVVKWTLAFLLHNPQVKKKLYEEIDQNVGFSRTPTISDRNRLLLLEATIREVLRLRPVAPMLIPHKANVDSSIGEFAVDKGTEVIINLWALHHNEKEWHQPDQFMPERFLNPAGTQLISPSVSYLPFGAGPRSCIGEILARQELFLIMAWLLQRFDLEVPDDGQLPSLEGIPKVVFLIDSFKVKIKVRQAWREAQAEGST

CYP17A1 = CYP17A1 inhibitor; statement in introduction, no reference given; cited from earlier work

mode of inhibition ([2]; listed as Abi) | SMILES | type of difference spectrum induced [1] | Kd [1] | Ki [2] | potency relative to ketoconazole (CYP17A1) | mode of inhibition [2] | Type of inhibition ([2]; progesterone as substrate)
mixed-type inhibitors | C[C@]12CC[C@H](O)CC1=CC[C@@H]1[C@@H]2CC[C@]2(C)C(c3cccnc3)=CC[C@@H]12 [Abiraterone, abiraterone, reference compound] | type II difference spectrum | 2.6 ± 3.2 nM | 27 nM | about 20 times | – | –
– | C[C@]12CC[C@@H](O)C[C@@H]1CC[C@@H]1[C@@H]2CC[C@]2(C)C(c3cccnc3)=CC[C@@H]12 [Compound 5, 17-(3-pyridyl)-5α-androsta-16-ene-3α-ol] | type II difference spectrum | – | 14 nM | – | mixed-type inhibitors; also recorded: mixed competitive-noncompetitive inhibition | –
– | C[C@]12CCC(=O)C[C@@H]1CC[C@@H]1[C@@H]2CC[C@]2(C)C(c3cccnc3)=CC[C@@H]12 [Compound 6, 17-(3-pyridyl)-5α-androsta-16-ene-3-one] | type II difference spectrum | – | 7 nM | – | mixed-type inhibitors; also recorded: mixed competitive-noncompetitive inhibition | –
– | C[C@]12CCC(=O)C=C1CC[C@@H]1[C@@H]2CC[C@]2(C)C(c3cccnc3)=CC[C@@H]12 [Compound 11, 17-(3-pyridyl)androsta-4,16-dien-3-one] | type II difference spectrum | – | 22 nM | – | mixed-type inhibitors; also recorded: mixed competitive-noncompetitive inhibition | –
– | C[C@]12CC[C@@H](O)C=C1CC[C@@H]1[C@@H]2CC[C@]2(C)C(c3cccnc3)=CC[C@@H]12 [Compound 13, 17-(3-pyridyl)androsta-4,16-dien-3α-ol] | type II difference spectrum | 1660 ± 286 nM | 80 nM | – | primarily non-competitive inhibition; also recorded: non-competitive inhibitor; also recorded: primarily noncompetitive; also recorded: largely noncompetitive mode of inhibition | N

From PMC4272579 (The Journal of steroid biochemistry and molecular biology, 2014)
